Measured values: PubChem BioAssay (NCI)
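Cultured in 96-well plates, cells were exposed to test compound for 48 hours across five concentrations. The concentration for full growth arrest is given as TGI.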 Where a SMILES comes first, the peptide text is derived from it. [ ]: non-standard residue; d: D form. The star is where a group is joined. Bn2Val = CC(C)[C@@H](C(=O)*)N(Cc1ccccc1)Cc1ccccc1; NH(3,4-diMeO-benzyl) = COc1ccc(CN*)cc1OC; NMeV = CN[C@H](C(=O)O)C(C)C

Columns and labels:
Test in all cases: NCI tumour cell line growth inhibition, 48 h
TK-10 renal = tested on: TK-10 renal
OVCAR-3 ovarian = tested on: OVCAR-3 ovarian
MOLT-4 leukemia = tested on: MOLT-4 leukemia
PC-3 prostate = tested on: PC-3 prostate
HT29 colon = tested on: HT29 colon
HCC-2998 colon = tested on: HCC-2998 colon
NCI-H226 lung = tested on: NCI-H226 lung
OVCAR-4 ovarian = tested on: OVCAR-4 ovarian
DU-145 prostate = tested on: DU-145 prostate
ACHN renal = tested on: ACHN renal
MALME-3M melanoma = tested on: MALME-3M melanoma
SF-539 CNS = tested on: SF-539 CNS
HCT-15 colon = tested on: HCT-15 colon
BT-549 breast = tested on: BT-549 breast
A498 renal = tested on: A498 renal
CCRF-CEM leukemia = tested on: CCRF-CEM leukemia
MDA-N = tested on: MDA-N
M14 melanoma = tested on: M14 melanoma
RPMI-8226 leukemia = tested on: RPMI-8226 leukemia
UACC-257 melanoma = tested on: UACC-257 melanoma
OVCAR-5 ovarian = tested on: OVCAR-5 ovarian
MDA-MB-231 breast = tested on: MDA-MB-231 breast
NCI/ADR-RES ovarian = tested on: NCI/ADR-RES ovarian
HOP-62 NSCLC = tested on: HOP-62 NSCLC
U251 CNS = tested on: U251 CNS
OVCAR-8 ovarian = tested on: OVCAR-8 ovarian
NCI-H522 lung = tested on: NCI-H522 lung
CAKI-1 renal = tested on: CAKI-1 renal
NCI-H23 lung = tested on: NCI-H23 lung
K-562 leukemia = tested on: K-562 leukemia
SF-268 CNS = tested on: SF-268 CNS
RXF 393 renal = tested on: RXF 393 renal
SW-620 colon = tested on: SW-620 colon
SNB-19 CNS = tested on: SNB-19 CNS
HCT-116 colon = tested on: HCT-116 colon
SK-MEL-5 melanoma = tested on: SK-MEL-5 melanoma
UO-31 renal = tested on: UO-31 renal
786-0 renal = tested on: 786-0 renal
MDA-MB-435 = tested on: MDA-MB-435
SK-MEL-28 melanoma = tested on: SK-MEL-28 melanoma
HOP-92 NSCLC = tested on: HOP-92 NSCLC
UACC-62 melanoma = tested on: UACC-62 melanoma
IGROV1 ovarian = tested on: IGROV1 ovarian
A549 NSCLC = tested on: A549 NSCLC
COLO 205 colon = tested on: COLO 205 colon
KM12 colon = tested on: KM12 colon
SK-MEL-2 melanoma = tested on: SK-MEL-2 melanoma
SF-295 CNS = tested on: SF-295 CNS
SN12C renal = tested on: SN12C renal
T-47D breast = tested on: T-47D breast
EKVX NSCLC = tested on: EKVX NSCLC
SR leukemia = tested on: SR leukemia
LOX IMVI melanoma = tested on: LOX IMVI melanoma
MCF7 breast = tested on: MCF7 breast
SK-OV-3 ovarian = tested on: SK-OV-3 ovarian
HS 578T breast = tested on: HS 578T breast
SNB-75 CNS = tested on: SNB-75 CNS
NCI-H460 lung = tested on: NCI-H460 lung
HL-60(TB) leukemia = tested on: HL-60(TB) leukemia

Q: Which TGI (TK-10 renal) does the source give for `Cc1ccc(C2SCC(=O)N2NC(=O)c2ccncc2)s1` (stereo not given) here?
A: > 100 µM

Q: And the TGI (OVCAR-3 ovarian)?
A: > 100 µM

Q: What about the TGI (MOLT-4 leukemia) of the same molecule?
A: > 100 µM

Q: And the TGI (PC-3 prostate)?
A: > 100 µM

Q: What about the TGI (HT29 colon) of the same molecule?
A: > 100 µM

Q: And the TGI (HCC-2998 colon)?
A: > 100 µM

Q: What about the TGI (NCI-H226 lung) of the same molecule?
A: > 100 µM

Q: What about the TGI (OVCAR-4 ovarian) of the same molecule?
A: > 100 µM

Q: And the TGI (DU-145 prostate)?
A: > 100 µM

Q: What about the TGI (ACHN renal) of the same molecule?
A: > 100 µM

Q: What about the TGI (MALME-3M melanoma) of the same molecule?
A: > 100 µM

Q: And the TGI (SF-539 CNS)?
A: > 100 µM

Q: What about the TGI (HCT-15 colon) of the same molecule?
A: > 100 µM

Q: What about the TGI (BT-549 breast) of the same molecule?
A: > 100 µM

Q: What about the TGI (A498 renal) of the same molecule?
A: > 100 µM

Q: What about the TGI (CCRF-CEM leukemia) of the same molecule?
A: > 100 µM

Q: And the TGI (MDA-N)?
A: > 100 µM

Q: What about the TGI (M14 melanoma) of the same molecule?
A: > 100 µM

Q: And the TGI (RPMI-8226 leukemia)?
A: > 100 µM

Q: What about the TGI (UACC-257 melanoma) of the same molecule?
A: > 100 µM

Q: What about the TGI (OVCAR-5 ovarian) of the same molecule?
A: > 100 µM

Q: What about the TGI (MDA-MB-231 breast) of the same molecule?
A: > 100 µM

Q: What about the TGI (NCI/ADR-RES ovarian) of the same molecule?
A: > 100 µM

Q: What about the TGI (HOP-62 NSCLC) of the same molecule?
A: > 100 µM

Q: And the TGI (U251 CNS)?
A: > 100 µM

Q: And the TGI (OVCAR-8 ovarian)?
A: > 100 µM

Q: What about the TGI (NCI-H522 lung) of the same molecule?
A: > 100 µM

Q: And the TGI (CAKI-1 renal)?
A: > 100 µM

Q: And the TGI (NCI-H23 lung)?
A: > 100 µM

Q: What about the TGI (K-562 leukemia) of the same molecule?
A: > 100 µM

Q: What about the TGI (SF-268 CNS) of the same molecule?
A: > 100 µM

Q: What about the TGI (RXF 393 renal) of the same molecule?
A: > 100 µM

Q: What about the TGI (SW-620 colon) of the same molecule?
A: > 100 µM

Q: What about the TGI (SNB-19 CNS) of the same molecule?
A: > 100 µM

Q: What about the TGI (HCT-116 colon) of the same molecule?
A: > 100 µM

Q: What about the TGI (SK-MEL-5 melanoma) of the same molecule?
A: > 100 µM

Q: And the TGI (UO-31 renal)?
A: > 100 µM

Q: And the TGI (786-0 renal)?
A: > 100 µM

Q: And the TGI (MDA-MB-435)?
A: > 100 µM

Q: And the TGI (SK-MEL-28 melanoma)?
A: > 100 µM

Q: What about the TGI (HOP-92 NSCLC) of the same molecule?
A: > 100 µM

Q: What about the TGI (UACC-62 melanoma) of the same molecule?
A: > 100 µM

Q: And the TGI (IGROV1 ovarian)?
A: > 100 µM

Q: What about the TGI (A549 NSCLC) of the same molecule?
A: > 100 µM

Q: And the TGI (COLO 205 colon)?
A: > 100 µM

Q: And the TGI (KM12 colon)?
A: > 100 µM

Q: What about the TGI (SK-MEL-2 melanoma) of the same molecule?
A: > 100 µM

Q: And the TGI (SF-295 CNS)?
A: > 100 µM

Q: And the TGI (SN12C renal)?
A: > 100 µM

Q: What about the TGI (T-47D breast) of the same molecule?
A: > 100 µM

Q: And the TGI (EKVX NSCLC)?
A: > 100 µM

Q: What about the TGI (SR leukemia) of the same molecule?
A: > 100 µM

Q: What about the TGI (LOX IMVI melanoma) of the same molecule?
A: > 100 µM

Q: What about the TGI (MCF7 breast) of the same molecule?
A: > 100 µM

Q: And the TGI (SK-OV-3 ovarian)?
A: > 100 µM

Q: Which TGI (TK-10 renal) does the source give for `COc1ccc(CNC(=O)[C@@H]2CCCN2C(=O)[C@@H]2CCCN2C(=O)[C@H](C(C)C)N(C)C(=O)[C@@H](NC(=O)[C@H](C(C)C)N(Cc2ccccc2)Cc2ccccc2)C(C)C)cc1OC` (Bn2Val-V[NMeV]PP-{NH(3,4-diMeO-benzyl)}) here?
A: 29.5 µM

Q: What about the TGI (OVCAR-3 ovarian) of the same molecule?
A: 27.6 µM

Q: What about the TGI (MOLT-4 leukemia) of the same molecule?
A: 72.2 µM

Q: What about the TGI (PC-3 prostate) of the same molecule?
A: 30.8 µM

Q: What about the TGI (HT29 colon) of the same molecule?
A: 20.7 µM

Q: What about the TGI (NCI-H226 lung) of the same molecule?
A: 33.4 µM

Q: What about the TGI (OVCAR-4 ovarian) of the same molecule?
A: 42.6 µM

Q: And the TGI (DU-145 prostate)?
A: 30.1 µM

Q: And the TGI (ACHN renal)?
A: 28 µM

Q: And the TGI (MALME-3M melanoma)?
A: 46.2 µM

Q: And the TGI (SF-539 CNS)?
A: 34 µM

Q: What about the TGI (HCT-15 colon) of the same molecule?
A: 31.4 µM

Q: And the TGI (BT-549 breast)?
A: 34.5 µM

Q: What about the TGI (A498 renal) of the same molecule?
A: 31.6 µM

Q: And the TGI (CCRF-CEM leukemia)?
A: > 100 µM

Q: What about the TGI (MDA-N) of the same molecule?
A: 30.5 µM

Q: What about the TGI (M14 melanoma) of the same molecule?
A: 29.4 µM

Q: And the TGI (HS 578T breast)?
A: > 100 µM

Q: What about the TGI (UACC-257 melanoma) of the same molecule?
A: 42.9 µM

Q: And the TGI (OVCAR-5 ovarian)?
A: 34 µM

Q: And the TGI (MDA-MB-231 breast)?
A: 42.3 µM

Q: What about the TGI (NCI/ADR-RES ovarian) of the same molecule?
A: 48.2 µM

Q: What about the TGI (HOP-62 NSCLC) of the same molecule?
A: 32.3 µM

Q: And the TGI (SNB-75 CNS)?
A: 25.7 µM

Q: What about the TGI (U251 CNS) of the same molecule?
A: 45.7 µM

Q: And the TGI (OVCAR-8 ovarian)?
A: 30.3 µM

Q: What about the TGI (NCI-H522 lung) of the same molecule?
A: 20.6 µM

Q: And the TGI (CAKI-1 renal)?
A: 38.1 µM

Q: What about the TGI (NCI-H23 lung) of the same molecule?
A: 38.6 µM

Q: What about the TGI (K-562 leukemia) of the same molecule?
A: > 100 µM

Q: What about the TGI (SF-268 CNS) of the same molecule?
A: > 48.1 µM

Q: What about the TGI (NCI-H460 lung) of the same molecule?
A: > 60.5 µM

Q: What about the TGI (RXF 393 renal) of the same molecule?
A: 26.7 µM

Q: What about the TGI (SW-620 colon) of the same molecule?
A: > 60.8 µM

Q: And the TGI (SNB-19 CNS)?
A: 30.7 µM

Q: And the TGI (HCT-116 colon)?
A: 29.5 µM

Q: What about the TGI (SK-MEL-5 melanoma) of the same molecule?
A: 20.4 µM

Q: What about the TGI (786-0 renal) of the same molecule?
A: 26.5 µM

Q: And the TGI (MDA-MB-435)?
A: 39 µM

Q: And the TGI (SK-MEL-28 melanoma)?
A: 38.5 µM

Q: And the TGI (HOP-92 NSCLC)?
A: 28.9 µM

Q: And the TGI (UACC-62 melanoma)?
A: 29.7 µM

Q: What about the TGI (IGROV1 ovarian) of the same molecule?
A: 13.4 µM

Q: And the TGI (A549 NSCLC)?
A: 38.4 µM

Q: What about the TGI (COLO 205 colon) of the same molecule?
A: 38.7 µM

Q: What about the TGI (KM12 colon) of the same molecule?
A: 51.5 µM

Q: What about the TGI (SK-MEL-2 melanoma) of the same molecule?
A: 34.5 µM

Q: What about the TGI (SF-295 CNS) of the same molecule?
A: 29.9 µM

Q: What about the TGI (SN12C renal) of the same molecule?
A: 29.9 µM

Q: And the TGI (T-47D breast)?
A: 48.3 µM

Q: What about the TGI (EKVX NSCLC) of the same molecule?
A: 26.7 µM

Q: And the TGI (SR leukemia)?
A: > 100 µM

Q: What about the TGI (LOX IMVI melanoma) of the same molecule?
A: 16.4 µM

Q: And the TGI (SK-OV-3 ovarian)?
A: 31.4 µM

Q: What about the TGI (HL-60(TB) leukemia) of the same molecule?
A: 6.17 µM
